The values below come from ChEMBL document CHEMBL2424545, “Structure-efficiency relationship of [1,2,4]triazol-3-ylamines as novel nicotinamide isosteres that inhibit tankyrases” (J Med Chem, 2013).

In brackets after ≈: the same amount, converted by molar mass. Bounds are passed on as bounds.

Data set [1] is described as follows: Inhibition of Wnt signaling in human HEK293 cells by STF luciferase reporter gene assay.
The target of data set [2] is T1, Poly [ADP-ribose] polymerase tankyrase-2 (Homo sapiens, UniProt Q9H2K2).
T1 sequence (Q9H2K2 whole entry): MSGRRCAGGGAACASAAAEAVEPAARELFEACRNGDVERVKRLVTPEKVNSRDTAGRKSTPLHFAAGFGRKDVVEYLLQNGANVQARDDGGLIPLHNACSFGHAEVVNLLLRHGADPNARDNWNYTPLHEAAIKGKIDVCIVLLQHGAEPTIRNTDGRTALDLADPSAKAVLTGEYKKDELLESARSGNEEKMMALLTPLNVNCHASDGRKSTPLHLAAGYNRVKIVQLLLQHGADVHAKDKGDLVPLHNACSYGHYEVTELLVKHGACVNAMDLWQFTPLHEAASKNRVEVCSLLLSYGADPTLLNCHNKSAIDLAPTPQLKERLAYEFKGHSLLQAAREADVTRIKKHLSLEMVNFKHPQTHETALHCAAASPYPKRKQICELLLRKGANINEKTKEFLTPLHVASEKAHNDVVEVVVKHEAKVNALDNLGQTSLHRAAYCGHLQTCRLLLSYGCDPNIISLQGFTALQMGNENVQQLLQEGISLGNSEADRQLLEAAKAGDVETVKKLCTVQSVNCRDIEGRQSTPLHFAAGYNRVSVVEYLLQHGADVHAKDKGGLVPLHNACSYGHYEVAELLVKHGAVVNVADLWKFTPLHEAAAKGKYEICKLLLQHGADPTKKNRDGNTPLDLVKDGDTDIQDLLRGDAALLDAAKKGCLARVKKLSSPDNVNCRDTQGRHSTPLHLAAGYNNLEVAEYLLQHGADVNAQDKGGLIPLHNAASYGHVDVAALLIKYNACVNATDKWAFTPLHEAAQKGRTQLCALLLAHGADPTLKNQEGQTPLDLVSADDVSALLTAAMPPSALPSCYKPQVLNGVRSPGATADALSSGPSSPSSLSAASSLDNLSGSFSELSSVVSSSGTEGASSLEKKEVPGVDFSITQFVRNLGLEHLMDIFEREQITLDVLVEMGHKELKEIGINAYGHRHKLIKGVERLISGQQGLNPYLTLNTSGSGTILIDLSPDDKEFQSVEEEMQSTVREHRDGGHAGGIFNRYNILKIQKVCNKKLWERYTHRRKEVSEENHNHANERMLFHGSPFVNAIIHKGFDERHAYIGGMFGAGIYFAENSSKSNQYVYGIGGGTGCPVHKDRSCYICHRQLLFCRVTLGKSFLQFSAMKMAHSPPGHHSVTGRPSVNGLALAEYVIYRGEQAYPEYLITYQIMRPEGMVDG
The experiment in a line: Inhibition of N-terminal GST-tagged TNKS2 (unknown origin) expressed in baculovirus infected sf21 cells after 60 mins by LC-MS analysis.

Data set [3] deals with Poly [ADP-ribose] polymerase 2 (Homo sapiens, UniProt Q9UGN5). The experiment in a line: Inhibition of PARP2 (unknown origin) after 60 mins by LC-MS analysis.
Chain of Poly [ADP-ribose] polymerase 2 (Q9UGN5 whole entry): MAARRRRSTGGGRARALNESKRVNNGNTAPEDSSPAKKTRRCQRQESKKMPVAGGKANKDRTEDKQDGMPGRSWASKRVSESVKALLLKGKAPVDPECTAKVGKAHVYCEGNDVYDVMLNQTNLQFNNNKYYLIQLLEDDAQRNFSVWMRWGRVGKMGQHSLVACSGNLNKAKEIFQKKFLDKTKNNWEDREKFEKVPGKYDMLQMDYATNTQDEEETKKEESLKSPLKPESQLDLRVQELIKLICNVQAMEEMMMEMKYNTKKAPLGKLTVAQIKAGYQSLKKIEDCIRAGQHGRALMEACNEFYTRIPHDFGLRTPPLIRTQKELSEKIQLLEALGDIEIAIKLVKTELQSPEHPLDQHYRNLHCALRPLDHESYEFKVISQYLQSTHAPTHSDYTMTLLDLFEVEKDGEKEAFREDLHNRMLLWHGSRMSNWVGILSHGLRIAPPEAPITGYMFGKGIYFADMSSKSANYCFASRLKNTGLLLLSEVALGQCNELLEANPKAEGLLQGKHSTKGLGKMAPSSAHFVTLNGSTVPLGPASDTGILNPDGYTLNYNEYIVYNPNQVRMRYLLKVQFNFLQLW
The target in data set [4] is T2, Poly [ADP-ribose] polymerase tankyrase-1 (Homo sapiens, UniProt O95271).
T2 sequence (O95271 whole entry): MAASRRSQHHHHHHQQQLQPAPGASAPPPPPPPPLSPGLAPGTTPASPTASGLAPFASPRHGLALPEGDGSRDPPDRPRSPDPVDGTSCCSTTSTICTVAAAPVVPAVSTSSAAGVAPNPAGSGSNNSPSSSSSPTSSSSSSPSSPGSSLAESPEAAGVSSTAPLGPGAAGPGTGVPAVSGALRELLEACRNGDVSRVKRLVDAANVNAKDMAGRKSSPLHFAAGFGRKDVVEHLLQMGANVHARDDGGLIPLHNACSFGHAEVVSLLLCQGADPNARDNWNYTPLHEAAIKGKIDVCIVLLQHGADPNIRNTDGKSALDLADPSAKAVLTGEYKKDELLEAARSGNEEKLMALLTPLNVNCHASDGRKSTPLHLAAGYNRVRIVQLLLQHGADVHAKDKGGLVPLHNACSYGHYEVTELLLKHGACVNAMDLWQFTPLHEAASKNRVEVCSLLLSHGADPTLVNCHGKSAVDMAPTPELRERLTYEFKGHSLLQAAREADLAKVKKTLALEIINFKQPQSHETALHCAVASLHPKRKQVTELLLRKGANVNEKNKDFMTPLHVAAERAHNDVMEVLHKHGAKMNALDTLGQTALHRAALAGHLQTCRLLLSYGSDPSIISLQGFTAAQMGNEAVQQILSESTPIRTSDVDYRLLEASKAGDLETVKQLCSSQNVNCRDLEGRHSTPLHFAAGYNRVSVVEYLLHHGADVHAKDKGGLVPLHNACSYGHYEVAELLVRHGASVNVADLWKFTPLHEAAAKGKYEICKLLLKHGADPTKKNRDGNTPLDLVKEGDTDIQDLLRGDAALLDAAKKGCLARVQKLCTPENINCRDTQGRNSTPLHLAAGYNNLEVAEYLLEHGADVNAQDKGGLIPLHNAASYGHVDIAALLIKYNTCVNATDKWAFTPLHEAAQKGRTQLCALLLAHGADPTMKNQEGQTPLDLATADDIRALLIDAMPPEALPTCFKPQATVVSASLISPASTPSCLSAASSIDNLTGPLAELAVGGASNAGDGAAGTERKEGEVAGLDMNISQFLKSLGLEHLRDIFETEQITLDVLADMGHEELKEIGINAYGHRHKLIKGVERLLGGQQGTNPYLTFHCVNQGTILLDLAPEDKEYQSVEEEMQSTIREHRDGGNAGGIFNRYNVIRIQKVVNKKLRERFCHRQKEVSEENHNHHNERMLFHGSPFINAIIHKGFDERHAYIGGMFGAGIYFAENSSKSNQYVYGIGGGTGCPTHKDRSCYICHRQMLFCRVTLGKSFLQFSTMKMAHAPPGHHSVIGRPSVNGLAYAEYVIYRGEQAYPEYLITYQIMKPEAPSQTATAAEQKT
The data set is described as follows: Inhibition of N-terminal GST-tagged human TNKS1 expressed in baculovirus infected sf21 cells after 60 mins by LC-MS analysis.

A short description of data set [5]: Inhibition of TNKS in human SW480 cells assessed as stabilization of axin2 after 24 hrs by ELISA. The data set is classed as cell-based.
Data set [6] can be described thus: Hepatic extraction ratio in mouse liver microsomes. The data set is classed as ADME, Microsome. The note with it: read-out: ERH.
The nature of data set [7]: Hepatic extraction ratio in human liver microsomes. The data set is classed as ADME, Microsome. As to conditions: read-out: ERH.
The nature of data set [8]: Solubility of the compound at pH 6.8. The data set is classed as physicochemical. As to conditions: buffer.
Data set [9] can be described thus: Plasma clearance in iv dosed Sprague-Dawley rat. The data set is classed as ADME, organism-based.
Data set [10] is described as follows: Volume of distribution in iv dosed Sprague-Dawley rat. As to conditions: in vivo. The data set is classed as ADME, organism-based.
Data set [11] addresses Poly [ADP-ribose] polymerase 1 (Homo sapiens, UniProt P09874).
Description: Inhibition of human PARP1 after 60 mins by LC-MS analysis

Chain of Poly [ADP-ribose] polymerase 1 (P09874 whole entry): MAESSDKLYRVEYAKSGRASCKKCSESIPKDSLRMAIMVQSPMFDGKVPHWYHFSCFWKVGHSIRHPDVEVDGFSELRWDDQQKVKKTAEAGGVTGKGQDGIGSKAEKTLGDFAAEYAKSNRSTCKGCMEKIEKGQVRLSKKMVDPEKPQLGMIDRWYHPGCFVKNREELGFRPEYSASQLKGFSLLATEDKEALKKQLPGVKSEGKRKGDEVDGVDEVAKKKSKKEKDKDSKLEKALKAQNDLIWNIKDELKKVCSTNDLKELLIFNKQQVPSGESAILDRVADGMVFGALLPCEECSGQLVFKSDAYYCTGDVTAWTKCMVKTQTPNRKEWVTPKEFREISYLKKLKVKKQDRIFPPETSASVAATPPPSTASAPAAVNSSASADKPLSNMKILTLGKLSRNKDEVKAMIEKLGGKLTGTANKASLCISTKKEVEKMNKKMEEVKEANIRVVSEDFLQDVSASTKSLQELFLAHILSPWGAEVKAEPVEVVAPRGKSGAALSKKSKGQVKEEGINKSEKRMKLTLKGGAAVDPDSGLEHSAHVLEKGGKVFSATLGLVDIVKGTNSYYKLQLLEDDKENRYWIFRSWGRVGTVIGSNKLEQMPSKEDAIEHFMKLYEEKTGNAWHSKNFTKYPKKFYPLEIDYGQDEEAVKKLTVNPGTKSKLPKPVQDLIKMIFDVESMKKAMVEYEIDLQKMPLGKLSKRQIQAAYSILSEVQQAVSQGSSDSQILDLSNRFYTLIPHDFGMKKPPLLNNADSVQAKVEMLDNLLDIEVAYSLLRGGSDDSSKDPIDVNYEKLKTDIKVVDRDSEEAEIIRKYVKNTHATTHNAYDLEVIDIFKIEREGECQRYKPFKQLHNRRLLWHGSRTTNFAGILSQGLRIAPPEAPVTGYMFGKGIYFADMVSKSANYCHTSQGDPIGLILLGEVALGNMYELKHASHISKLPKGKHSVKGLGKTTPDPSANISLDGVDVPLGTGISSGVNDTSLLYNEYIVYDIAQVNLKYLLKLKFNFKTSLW

The molecule `Oc1nc(-c2ccc(C(F)(F)F)cc2)nc2c1CSCC2` returned an IC50 in data set [1] of 0.078 µM.
For the molecule `O=C(Cc1ccccc1)Nc1nnc2n1CCS2`, the IC50 turned out to be 0.239 µM in data set [2] and 7.27 µM in data set [1].
In the case of `CC(C)(C)c1ccc(C(=O)Nc2nnc3n2CCS3)cc1`, the IC50 is greater than 19 µM in [3]; 0.031 µM in data set [2]; 0.299 µM in data set [4]; greater than 10 µM in [5]; 2.39 µM in data set [1]. In addition, the hepatic extraction ratio in [6] came out at 0.84; in data set [7], 0.36. Also, in [8], the solubility is greater than 100 µM.
In turn, `O=C(Nc1nnc2n1CCS2)c1ccccc1` yielded an IC50 in data set [2] of 0.25 µM.
The molecule `CC(=O)Nc1nnc2n1CCS2` gave an IC50 in [2] greater than 19 µM.
On to `Cc1n[nH]c(C)c1CCC(=O)Nc1nnc2n1CCS2`, for which the IC50 in [2] is 0.195 µM; in [1] it was greater than 10 µM.
`CC(C)(C)c1ccc(C(=O)Nc2nnc3n2CCCS3)cc1`: the IC50 in data set [3] was greater than 19 µM; in data set [2], 0.353 µM; in data set [1], 47.8 µM.
Take `O=C(Nc1nnc2n1CCCS2)c1ccccc1`: the IC50 in data set [2] was 2.76 µM.
In turn, `CC(C)CC(=O)Nc1nnc2n1CCCS2` showed an IC50 in data set [2] of 0.98 µM.
With `CC(=O)Nc1nnc2n1CCCS2`, the half-maximal inhibitory concentration (IC50) in data set [2] was greater than 19 µM.
As to `O=C(Nc1nnc2n1CCS2)C1CC1`, the half-maximal inhibitory concentration (IC50) in data set [2] was 2.01 µM; in data set [1], greater than 50 µM.
The corresponding values for `O=C(Nc1nnc2n1CCS2)C1CCC1` are 0.264 µM and 13.8 µM.
`O=C(Nc1nnc2n1CCS2)C1CCCC1`: the IC50 worked out at 0.22 µM in data set [2] and 12.8 µM in data set [1].
The corresponding values for `O=C(Nc1nnc2n1CCS2)C1CCCCC1` are 0.07 µM and 1.54 µM.
With `O=C(CC1CCCCC1)Nc1nnc2n1CCS2`, the concentration for half-maximal inhibition (IC50) is 0.02 µM in data set [2] and 0.429 µM in [1].
Regarding `O=C(CC1CCOCC1)Nc1nnc2n1CCS2`, the IC50 in [2] came out at 0.202 µM; in data set [1], 10.3 µM.
Take `O=C(CCC1CCCC1)Nc1nnc2n1CCS2`: the IC50 in data set [2] amounted to 0.009 µM; in data set [4], 0.028 µM; in data set [5], 3.08 µM; in data set [1], 0.194 µM. For the same molecule, the values for the hepatic extraction ratio in data set [6] and in [7] were 0.91 and 0.68, respectively. The molecule further returned a solubility in data set [8] of 630 µM (≈ 168 µg/mL).
Take `O=C(CCC1CCCCC1)Nc1nnc2n1CCS2`: the IC50 was 0.008 µM in [2], 0.032 µM in data set [4], greater than 10 µM in [5] and 0.169 µM in [1]. The values for the hepatic extraction ratio in [6] and in data set [7] were 0.95 and 0.2, respectively. In [8], this molecule had a solubility of 520 µM (≈ 146 µg/mL).
Take `O=C(CCC1CCCCCC1)Nc1nnc2n1CCS2`: the results for the IC50 in [2] and in [1] were 0.026 µM and 2.18 µM, respectively.
With `O=C(CCc1ccccc1)Nc1nnc2n1CCS2`, the IC50 in data set [2] was 0.039 µM; in data set [1], 1.67 µM.
In the case of `O=C(CCCC1CCCCC1)Nc1nnc2n1CCS2`, the IC50 in data set [2] is 0.089 µM; in [1], 4.52 µM.
Take `O=C(CCCc1ccccc1)Nc1nnc2n1CCS2`: the half-inhibitory concentration (IC50) in data set [2] worked out at 0.303 µM; in data set [1], 6.46 µM.
The matching figures for `O=C(NCc1ccccc1)Nc1nnc2n1CCS2`: 0.444 µM and 17.6 µM.
`O=C(CCC1CCNCC1)Nc1nnc2n1CCS2`: the IC50 in [2] is 2.32 µM; in data set [1], greater than 50 µM.
For the molecule `O=C(CCc1ccccc1F)Nc1nnc2n1CCS2`, the IC50 in data set [2] amounted to 0.012 µM; in data set [1], 0.345 µM.
For `O=C(CCc1ccccc1Cl)Nc1nnc2n1CCS2`, the IC50 was found to be 0.005 µM in data set [2], 0.014 µM in data set [4], 1.4 µM in data set [5] and 0.05 µM in data set [1]. The hepatic extraction ratio in data set [6] came to 0.9; in data set [7], 0.66. The same molecule had a solubility in [8] of 32 µM (≈ 9.88 µg/mL).
Turning to `O=C(CCc1c(Cl)cccc1Cl)Nc1nnc2n1CCS2`, the IC50 in [3] is greater than 19 µM; in [2] it was 0.003 µM; in data set [4] it was 0.012 µM; in data set [5], 0.377 µM; in [11] it was greater than 19 µM; in data set [1] it was 0.029 µM. Also, the clearance in [9] came out at 45.6 mL/min/kg. Besides, the Vd in [10] was determined as 1.1 L/kg. Besides, the hepatic extraction ratio in data set [6] was 0.91; in [7] it was 0.61. This molecule also came in with a solubility in [8] of 16 µM (≈ 5.49 µg/mL).
As for `Cc1cccc(C)c1CCC(=O)Nc1nnc2n1CCS2`, the IC50 in data set [2] amounted to 0.033 µM; in data set [1], 1.21 µM.
For the molecule `O=C(CCc1cccc(Cl)c1Cl)Nc1nnc2n1CCS2`, the IC50 in data set [3] was 3.8 µM; in data set [2], 0.001 µM; in data set [4], 0.007 µM; in [5], greater than 10 µM; in [11], greater than 19 µM; in [1], 0.02 µM. Further, in data set [6], the hepatic extraction ratio was 0.92.
`O=C(CCc1ccc(Cl)cc1Cl)Nc1nnc2n1CCS2`: the IC50 in data set [3] was 4.7 µM; in data set [2], 0.005 µM; in data set [4] it was 0.024 µM; in data set [5] it was greater than 10 µM; in data set [11] it was greater than 19 µM; in [1], 0.116 µM. Moreover, in data set [6], the hepatic extraction ratio was 0.91.
In the case of `O=C(CCc1cccnc1)Nc1nnc2n1CCS2`, the IC50 was 0.138 µM in [2] and 6.29 µM in data set [1].
As to `O=C(CCc1ccncc1)Nc1nnc2n1CCS2`, the results for the concentration for half-maximal inhibition (IC50) in data set [2] and in data set [1] were 0.134 µM and 12.7 µM, respectively.
As to `O=C(CCc1ccco1)Nc1nnc2n1CCS2`, the half-maximal inhibitory concentration (IC50) is 0.088 µM in [2] and 5.35 µM in data set [1].
The matching figures for `O=C(CCn1cncn1)Nc1nnc2n1CCS2`: 1.79 µM and greater than 10 µM.
